Source: US20120196899A1, “METHODS AND PRODUCTS FOR TREATING INFLAMMATION” (Rock Creek Pharmaceuticals, Inc., priority 2010, published 2012)
Read-outs that look alike come from different tables or passages of the source.

Experiment: Plasma toxicokinetics after single i.v. bolus
Format: in vivo, Sprague-Dawley rats
Settings: for concentration at 4 h / concentration at 6 h / concentration at 1 h / concentration at 2 h / concentration at 8 h / concentration at 0.5 h / half-life: Sprague-Dawley, rat, plasma; for concentration at 4 h / concentration at 6 h / concentration at 1 h / concentration at 2 h / concentration at 8 h / concentration at 0.5 h: intravenous; for half-life: iv
Experimental: Six rats (3 males and 3 females) were dosed per dose group. […] Plasma and brain homogenates were stored at −80° C. until analysis.
An additional 48 rats (24 males and 24 females) received a single intravenous dose via the tail vein at the same doses as mentioned above. At 30 and 360 minutes post administration, 6 rats (3 males and 3 females) per dose group, per time point were euthanized, bled via cardiac puncture, and perfused, and brains were collected. The brains were homogenized. Blood was spun, and plasma was collected. Plasma and brain homogenate were stored at −80° C.
Four aliquots of each dose level formulation were collected and stored at −80° C. The test compound, corresponding dose level, number of animals, and sample collection times for Phase I of the study are shown in Table 3. The test compound, corresponding dose level, number of animals, and sample collection times for Phase II of the study are shown in Table 4. The physical signs of each animal were monitored following administration of the test compound.
The animals were weighed prior to dosing and received a single i.v. dose of either test compound at a volume of 5 mL/kg. Blood was collected via the venus plexus (retro-orbital) into tubes containing (K2) EDTA. No more than 0.5 mL was collected per time point. […] The brain was removed, weighed, homogenized in sterile 0.9% saline at a volume equal to its weight, and stored at −80° C.
Plasma was separated according to the instructions for MICROTAINER® brand collection tubes (3 minutes, 2000×g). Plasma was decanted into microfuge tubes and stored at −80° C. Remaining test compound was stored at −80° C.
The signal was optimized for each compound by electrospray ionization (ESI) positive or negative ionization mode. A single ion mode (SIM) scan was used to optimize the Fragmentor for the precursor ion and a product ion analysis was used to identify the best fragment for analysis and to optimize the collision energy. The fragment which gave the most sensitive and specific signal was chosen.
Sample preparation. […] The amount of the test agent in the supernatant was determined by liquid chromatography tandem mass spectrometry (LC/MS/MS).
Analysis. Samples were analyzed by LC/MS/MS using an Agilent 6410 mass spectrometer coupled with an Agilent 1200 high pressure liquid chromatography (HPLC) and a CTC PAL chilled autosampler, all controlled by MassHunter software (Agilent). After separation on a hydrophilic interaction liquid chromatography (HILIC) HPLC column (Sepax) using an acetonitrile-ammonium acetate/acetic acid gradient system, peaks were analyzed by mass spectrometry (MS) using ESI ionization in multiple reaction monitoring (MRM) mode. MassHunter software was used to calculate the concentration of the test compounds in samples from the peak area using the appropriate calibration curves.
Calibration samples. Calibration curves were determined for both rat plasma and brain homogenate. Calibration samples were prepared by diluting a 50× stock solution of the test compound in PBS with blank matrix to the appropriate concentration and these samples were prepared as described above in the sample preparation.

[1] = 0.75 mg/kg, Concentration of anatabine in rat plasma, Anatabine 0.75 mg/kg, rat plasma, rats of group 3
[2] = 0.75 mg/kg, Concentration of anatabine in rat plasma, Anatabine 0.75 mg/kg, rat plasma, rats of group 4
[3] = 1 mg/kg, Concentration of anatabine in rat plasma, Anatabine 1.0 mg/kg, rat plasma, rats of group 5
[4] = 1 mg/kg, Concentration of anatabine in rat plasma, Anatabine 1.0 mg/kg, rat plasma, rats of group 6
[5] = both sexes, 0.1 mg/kg, Anatabine 0.1 mg/kg, male and female, read-out: Avg. Conc. rat plasma, combined male and female
[6] = both sexes, 0.1 mg/kg, Concentration of anatabine in rat plasma, Anatabine 0.1 mg/kg, Rat Plasma, individual rats
[7] = both sexes, 0.75 mg/kg, Anatabine 0.75 mg/kg, male and female, read-out: Avg. Conc. rat plasma, combined male and female
[8] = both sexes, 1 mg/kg, Anatabine 1.0 mg/kg, male and female, read-out: Avg. Conc. rat plasma, combined male and female

**Q.** What does the source list for `C1=CCC(c2cccnc2)NC1` (racemic) [Anatabine, 1,2,3,6-tetrahydro-[2,3′]bipyridinyl]?
**A.** Avg. Conc. rat plasma (Anatabine 0.1 mg/kg, female, 8 hr): <LLQ; Avg. Conc. rat plasma (Anatabine 0.1 mg/kg, female, 24 hr): <LLQ; Avg. Conc. rat plasma, combined male and female (Anatabine 0.1 mg/kg, male and female, 8 hr): <LLQ; Avg. Conc. rat plasma, combined male and female (Anatabine 0.1 mg/kg, male and female, 24 hr): <LLQ; Avg. Conc. rat plasma (Anatabine 0.1 mg/kg, male, 6 hr (1st 6 hr line)): <LLQ; Avg. Conc. rat plasma (Anatabine 0.1 mg/kg, male, 8 hr): <LLQ; Avg. Conc. rat plasma (Anatabine 0.1 mg/kg, male, 24 hr): <LLQ; Avg. Conc. rat plasma (Anatabine 0.75 mg/kg, female, 24 hr): <LLQ; Avg. Conc. rat plasma, combined male and female (Anatabine 0.75 mg/kg, male and female, 24 hr): <LLQ; Avg. Conc. rat plasma (Anatabine 0.75 mg/kg, male, 24 hr): <LLQ; Avg. Conc. rat plasma (Anatabine 1.0 mg/kg, female, 24 hr): <LLQ; Avg. Conc. rat plasma, combined male and female (Anatabine 1.0 mg/kg, male and female, 24 hr): <LLQ; Avg. Conc. rat plasma (Anatabine 1.0 mg/kg, male, 24 hr): <LLQ; concentration at 4 h (0.1 mg/kg, Concentration of anatabine in rat plasma, Anatabine 0.1 mg/kg, Rat Plasma, individual rats): 3 ng/mL; concentration at 6 h (0.1 mg/kg, Concentration of anatabine in rat plasma, Anatabine 0.1 mg/kg, rat plasma, 6 hr, rats 2A-2C): 3 ng/mL; concentration at 1 h [1]: 153 ng/mL; concentration at 1 h [2]: 146 ng/mL; concentration at 2 h [1]: 73 ng/mL; concentration at 2 h [2]: 89 ng/mL; concentration at 4 h [1]: 29 ng/mL; concentration at 4 h [2]: 45 ng/mL; concentration at 8 h (0.75 mg/kg, Concentration of anatabine in rat plasma, Anatabine 0.75 mg/kg, rat plasma, 8 hr, rats of group 3): 8 ng/mL; concentration at 8 h (0.75 mg/kg, Concentration of anatabine in rat plasma, Anatabine 0.75 mg/kg, rat plasma, 8 hr, rats of group 4): 10 ng/mL; concentration at 0.5 h (1 mg/kg, Concentration of anatabine in rat plasma, Anatabine 1.0 mg/kg, rat plasma, 0.5 hr, rats of group 5): 288 ng/mL; concentration at 0.5 h (1 mg/kg, Concentration of anatabine in rat plasma, Anatabine 1.0 mg/kg, rat plasma, 0.5 hr, rats of group 6): 222 ng/mL; concentration at 1 h [3]: 257 ng/mL; concentration at 1 h [4]: 218 ng/mL; concentration at 2 h [3]: 121 ng/mL; concentration at 2 h [4]: 147 ng/mL; concentration at 4 h [3]: 36 ng/mL; concentration at 4 h [4]: 73 ng/mL; concentration at 6 h (1 mg/kg, Concentration of anatabine in rat plasma, Anatabine 1.0 mg/kg, rat plasma, 6 hr, rats of group 6): 33 ng/mL; concentration at 8 h (1 mg/kg, Concentration of anatabine in rat plasma, Anatabine 1.0 mg/kg, rat plasma, 8 hr, rats of group 5): 8 ng/mL; concentration at 8 h (1 mg/kg, Concentration of anatabine in rat plasma, Anatabine 1.0 mg/kg, rat plasma, 8 hr, rats of group 6): 19 ng/mL; t1/2 (anatabine 0.1 mg/kg single i.v., female rats): 1.64 ± 0.59 h; t1/2 (anatabine 0.75 mg/kg single i.v., male rats): 1.64 ± 0.12 h; t1/2 (anatabine 0.75 mg/kg single i.v., rat plasma, M + F): 1.68 ± 0.09 h; t1/2 (anatabine 1.0 mg/kg single i.v., rat plasma, M + F): 1.64 ± 0.25 h; concentration at 0.5 h (both sexes, 0.1 mg/kg, Anatabine 0.1 mg/kg, male and female, 0.5 hr (1st 0.5 hr line), n=12, read-out: Avg. Conc. rat plasma, combined male and female): 22.9 ng/mL; concentration at 1 h [5]: 8 ng/mL; concentration at 2 h [5]: 8.7 ng/mL; concentration at 4 h [5]: 5.2 ng/mL; concentration at 6 h (both sexes, 0.1 mg/kg, Anatabine 0.1 mg/kg, male and female, 6 hr (1st 6 hr line), n=6, read-out: Avg. Conc. rat plasma, combined male and female): 4.3 ng/mL; concentration at 6 h (both sexes, 0.1 mg/kg, Anatabine 0.1 mg/kg, male and female, 6 hr (2nd 6 hr line), n=4, read-out: Avg. Conc. rat plasma, combined male and female): 4.5 ng/mL; concentration at 1 h [6]: 10 ng/mL; concentration at 2 h [6]: 6 ng/mL; concentration at 0.5 h (both sexes, 0.75 mg/kg, Anatabine 0.75 mg/kg, male and female, 0.5 hr (1st 0.5 hr line), n=12, read-out: Avg. Conc. rat plasma, combined male and female): 257 ng/mL; concentration at 0.5 h (both sexes, 0.75 mg/kg, Anatabine 0.75 mg/kg, male and female, 0.5 hr (2nd 0.5 hr line), n=6, read-out: Avg. Conc. rat plasma, combined male and female): 328 ng/mL; concentration at 1 h [7]: 162 ng/mL; concentration at 2 h [7]: 91.7 ng/mL; concentration at 4 h [7]: 40 ng/mL; concentration at 6 h (both sexes, 0.75 mg/kg, Anatabine 0.75 mg/kg, male and female, 6 hr (1st 6 hr line), n=12, read-out: Avg. Conc. rat plasma, combined male and female): 19.3 ng/mL; concentration at 6 h (both sexes, 0.75 mg/kg, Anatabine 0.75 mg/kg, male and female, 6 hr (2nd 6 hr line), n=6, read-out: Avg. Conc. rat plasma, combined male and female): 22.5 ng/mL; concentration at 8 h (both sexes, 0.75 mg/kg, Anatabine 0.75 mg/kg, male and female, 8 hr, read-out: Avg. Conc. rat plasma, combined male and female): 10 ng/mL; concentration at 0.5 h (both sexes, 1 mg/kg, Anatabine 1.0 mg/kg, male and female, 0.5 hr (1st 0.5 hr line), n=12, read-out: Avg. Conc. rat plasma, combined male and female): 319 ng/mL; concentration at 0.5 h (both sexes, 1 mg/kg, Anatabine 1.0 mg/kg, male and female, 0.5 hr (2nd 0.5 hr line), n=6, read-out: Avg. Conc. rat plasma, combined male and female): 384 ng/mL; concentration at 1 h [8]: 231 ng/mL; concentration at 2 h [8]: 143 ng/mL; concentration at 4 h [8]: 51.5 ng/mL; concentration at 6 h (both sexes, 1 mg/kg, Anatabine 1.0 mg/kg, male and female, 6 hr (1st 6 hr line), n=12, read-out: Avg. Conc. rat plasma, combined male and female): 24.3 ng/mL; concentration at 6 h (both sexes, 1 mg/kg, Anatabine 1.0 mg/kg, male and female, 6 hr (2nd 6 hr line), n=6, read-out: Avg. Conc. rat plasma, combined male and female): 25 ng/mL; concentration at 8 h (both sexes, 1 mg/kg, Anatabine 1.0 mg/kg, male and female, 8 hr, read-out: Avg. Conc. rat plasma, combined male and female): 12.7 ng/mL; half-life (both sexes, 0.1 mg/kg, anatabine 0.1 mg/kg single i.v., rat plasma, M + F, read-out: t1/2 (converted)): 86.4 ± 28.8 min; half-life (both sexes, elimination half-life (t1/2), range over the anatabine treatment groups, anatabine 0.1-1.0 mg/kg single i.v., rats M + F): 98.4 to 101 min; concentration at 0.5 h (female, 0.1 mg/kg, Anatabine 0.1 mg/kg, female, 0.5 hr (1st 0.5 hr line), read-out: Avg. Conc. rat plasma): 13 ng/mL
